Entries after “also recorded” stand apart in the source; their conditions may differ. Values belong to the molecule of their own block, whether it stands above or below them. Where no end group is shown, it is not given here.
What was measured:
[1] = system: Rad51 foci; assay: Rad51 foci assay; assay type: cell-based; conditions: Pom 10 μM 24 h, then CPT 10 nM 12 h
Experimental: 50,000 cells (WT HEK293 or HEK293-PALB2^IKZF 3d/IKZF 3d) were seeded on coverslips and cultured with Pom (10 μM). After 24 h, CPT was added (10 nM). […] After removing the BSA-containing PBS, coverslips were incubated with primary antibody (Alexa Fluor 488 Anti-Rad51 antibody [EPR4030(3)] (Abcam, ab309674, RRID/AB_3675862), 1:500 in PBS) for 2 h and washed with PBS (3 times). Then, coverslips were mounted with antifade mountant with DAPI (Invitrogen) and fluorescence images were recorded by confocal microscopy (Leica Point Scanning Confocal SP8). Rad51 foci numbers in each cell were counted with Fiji ImageJ.
6 Homologous recombination assay
DR-GFP1 substrate (a gift from Maria Jasin, Addgene plasmid #26475; RRID:Addgene_26475) is flanked by human AAVS1 homology arms. Endogenous AAVS1 promoter drives T2A-hygromycin expression after integration. PX458-AAVS1 (#113194, Addgene) encodes sgRNA for human AAVS1 and expresses Cas9 nuclease. […]
(§1) After obtaining cells carrying the DR-GFP reporter, cells were maintained in medium with 10 µM pomalidomide for 24 hours. […] Four days after transfection, cells were resuspended in PBS and analyzed by flow cytometry using a BD LSR Fortessa. […]
(§2) primary antibody incubation, coverslips were washed 3 times with PBS. […] Fluorescence images were taken by confocal microscopy (LEICA POINT SCANNING CONFOCAL SP8). RAD51 f o ci numbers in each cell we re counted with Fiji ImageJ.

[2] = system: homologous recombination repair (DR-GFP reporter); assay: DR-GFP reporter assay of homologous recombination; assay type: cell-based
Experimental: DR-GFP plasmid[53] (a gift from Maria Jasin, Addgene plasmid #26475; RRID/Addgene_26475) was transfected into HEK293 cells with TurboFect (Thermo Scientific) at 70% confluency and selected with hygromycin (0.1 g/L, Invivogen) after 48 h. Transfected cells were moved to a 150 mm cell culture dish and cultured in DMEM medium with hygromycin (0.1 g/L). After obtaining cells carrying the DR-GFP reporter, the cells were treated with Pom for 24 h. Cells were then transfected with a modified pCBASceI[53] (a gift from Maria Jasin, Addgene plasmid #26477; RRID/Addgene_26477, I-SceI was expressed with P2A-mCherry to select for positively transfected cells) to introduce DSB at the I-SceI site in inserted DR-GFP plasmid. Four days after transfection, cells were resuspended in PBS and analyzed by flow cytometry.
6 Homologous recombination assay […]
as §1, §2

[3] = system: PALB2-IKZF3d; assay: IMiD-induced degradation of PALB2-IKZF3d (Western blot); assay type: cell-based; conditions: for degradation of PALB2 in IKZF3d knock-in cells: homozygous IKZF3d knock-in HEK293 cells, 24 h treatment
Experimental: 5.1 Degradation of PALB2 and UPP rescue assays
To show PALB2 deegradation, cells were treated with pomalidomide at the indicated concentrations for 24 h. The cells were subsequently lysed and prepared for gel electrophoresis and western blotting.
To show UPP rescue, MG132 and MLN4924 were used to inhibit the ubiquitination-proteasome degradation pathway. The cells were first treated with 1 μM MG132 or 1 μM MLN4924. After 6 h, pomalidomide was added to a final concentration of 10 μM. After 18 h, the cells were collected and lysed.
To show PALB2 recovery, the cells were first treated with 10 μM pomalidomide or 10 μM iberdomide for 24 h. After that, the culture medium was removed, the cells were washed three times with fresh culture medium and then cultured with culture medium without IMiDs.
The cells were then collected an d l yse d . […]
Figure S7. A). Degradation of endogenous PALB2.
B). PALB2 de gra dation rescue expe ri ment. The cells in the degradation rescue group w ere first t reated with 1 μ M MG132 and 1 μ M M LN49 24 for 6 hou rs and then t reated with 10 μ M pomalidomide for 1 8 hours. Cell samples were collected for WB analysis. The asterisk represents a nonspecific band of PALB 2 with t his antibody. […]

[4] = system: HEK293 PALB2 IKZF3d/IKZF3d knock-in cells; assay: Cell viability assay (WST-1); assay type: cell-based; conditions: 4 days (96 h), Pom 0, 5, 10 and 40 μM, WST-1
[5] = molecular target: PALB2 C-terminal WD40 domain; conditions: previous structural work; read-out: binding affinity to PALB2; cited from earlier work
Experimental: Previous structural work on the PALB2 C-terminal WD40 domain identified a small fragment of BRCA2 (residues 21–39) with an approximately 600 nM binding affinity (600 nM) to PALB2 (see Figure 2A for structure).[16] […] Binding of the BRCA2(21–39) peptide using fluorescence polarization (FP) with fluorescein (FAM) indeed gave a value in close alignment with the previous report (Figure 2B).[16] Building from this observation we further characterized the binding of amino acids 1 ...

[6] = molecular target: BRCA2 21-39 (Homo sapiens) (UniProt P51587); conditions: cited from earlier work
[7] = system: SmBiT-PALB2; assay: NanoBit protein-protein interaction assay in HEK293 cells; assay type: cell-based; conditions: BRCA2 peptide fused to LgBiT, HEK293, 24 h after transfection, signal normalized to empty vector
Experimental: The NanoBit CMV MCS BiBiT-Ready Vector (Promega) was modified to express PALB2 with a C-Terminal SmBit and the BRCA2 N-terminal peptide with a N-terminal LgBit. 5000 HEK293 cells were seeded in each well of a 96-well plate with a white bottom and grown for 24 h with cell medium (DMEM supplemented with 10% FCS at 37 °C with 5% CO2). The plasmid (100 ng) was transfected with FuGene HD (Promega, E5911) and incubated for 24 h. Then, Nano-Glo Live cell assay substrate (Promega) was added and the luminescence signal was recorded for 1000 ms. Signal was normalized to empty vector.
3 PALB2-BRCA2 interaction assays
0.5 million HEK293 cells were seeded per well in a 6-well plate. After 24 h, 2 μg of plasmid pCMV-FLAG-PALB2-IKZF3d or pCMV-FLAG-GFP-IKZF3d (control group) was transiently transfected with TurboFect (Thermo Scientific, e.g. R0531 or R0533) int o each well . After 36 h , the medium of at least 3 wells was removed. The cells were washed once with cold PBS on ice. […] The samples were analyzed by Western Blot. […]
NanoBiT CMV MCS BiBiT-Ready Vector (Promega) was used to construct a plasmid that can express LgBit fusion and SmBit fusion at the same time in cells. […] 24 hours after transfection, the luminescence signal of each well was obtained by adding Nano-Glo Live Cell Assay System (Promega) and the signal was read on a T e can S p ark 10M ( Tecan) for 1000 ms without temperature control.

[8] = molecular target: T1, PALB2 C-terminal WD40 domain (UniProt Q86YC2 835-1186); assay: fluorescence polarisation; not told for these peptides whether direct (labelled peptide) or displacement (dark peptide at 10 μM added to the PALB2C dilution series with 10 nM fluorescent peptide; competitive binding model); 25 °C; conditions: both partners purified
T1 construct: PALB2 (partner and localizer of BRCA2), C-terminal WD40 beta-propeller domain; as I recall that construct spans about residues 835-1186; methods are in the Supporting Information; also called PALB2 C-terminal domain
T1 sequence: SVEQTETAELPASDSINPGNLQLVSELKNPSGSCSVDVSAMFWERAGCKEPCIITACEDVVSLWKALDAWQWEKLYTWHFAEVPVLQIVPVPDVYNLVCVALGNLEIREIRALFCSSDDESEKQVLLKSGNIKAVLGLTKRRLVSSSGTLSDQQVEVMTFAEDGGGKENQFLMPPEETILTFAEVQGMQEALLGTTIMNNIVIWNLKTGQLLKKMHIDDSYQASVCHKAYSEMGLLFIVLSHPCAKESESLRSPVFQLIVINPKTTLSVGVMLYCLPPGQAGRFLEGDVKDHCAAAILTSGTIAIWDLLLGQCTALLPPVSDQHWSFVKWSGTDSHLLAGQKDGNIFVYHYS

Molecule: Nc1cccc2c1C(=O)N(C1CCC(=O)NC1=O)C2=O (stereo not shown) [Pom, pomalidomide]
number of Rad51 foci formed in response to DSBs by camptothecin ([1]; PALB2 IKZF3d/IKZF3d cells): significantly decrease
compromised Rad51 foci formation ([1]; PALB2 wild-type cells): not observed
GFP-positive cells (DR-GFP) ([2]; HEK293 wild-type cells, Pom vs DMSO control): remained largely unchanged
GFP-positive cells (DR-GFP) ([2]; PALB2 IKZF3d/IKZF3d cells, 10 μM Pom 24 h before I-SceI transfection, flow cytometry after 4 days): notable decrease in GFP-positive cells
recovery of PALB2 levels after wash out ([3]; 10 μM IMiD for 24 h, then medium removed and cells washed, knock-in cells): PALB2 levels recover after 24 h
degradation of transiently expressed PALB2-IKZF3d fusion ([3]; HEK293, transient transfection, 10 μM pomalidomide, 24 h): occurred only with the C-terminal fusion; also recorded: shows degradation
degradation of PALB2 in IKZF3d knock-in cells [3]: significant degradation of PALB2
degradation of PALB2 in IKZF3d knock-in cells ([3]; listed as pomalidomide): degrade most of the endogenous PA LB2
viability of WT and KI cell lines with Pom alone [4]: did not show strong differences

Molecule: BRCA2 (residues 21–39): small fragment of BRCA2 (residues 21-39) from previous structural work (fluorescein-GGKADLGPISLNWFEELSSEA)
Kd [5]: ~600 nM

Molecule: PALB2 WD40 (from UniProt Q86YC2)
Kd [6]: 600 nM

Molecule: W31R mutation of the BRCA(21–39) peptide: point mutated BRCA2 peptide (21-39, W31R) fused with LgBit; negative control (KADLGPISLNRFEELSSEA; also: fused with LgBiT)
NanoBit interaction signal with PALB2 [7]: complete loss of the interaction signal

Kd [8]: 8000 nM
B1: BRCA(23–33) (peptide, UniProt P51587 23-33, looked up)
peptide: DLGPISLNWFE
notes: BRCA2 residues 23-33; Rink amide beads: probably a C-terminal amide (my surmise); also called absolute minimal peptide; source: synthetic peptide (SPPS, preparative HPLC)

Source: article PMC12090178, “Exploring the Potential of Homologous Recombination Protein PALB2 in Synthetic Lethal Combinations” (ACS Chemical Biology, 2025)
